Measured values: ChEMBL document CHEMBL5233246, “CT1-3, a novel magnolol-sulforaphane hybrid suppresses tumorigenesis through inducing mitochondria-mediated apoptosis and inhibiting epithelial mesenchymal transition” (Eur J Med Chem, 2020)
Activity calls are given as the source filed them. No cut-off for these calls is given here.

Assays:
SGC-7901 = assay: Antiproliferative activity against human SGC-7901 cells assessed as reduction in cell viability incubated for 24 hrs by CCK-8 assay; format: functional, cell-based; conditions: SGC-7901, 24 h
LoVo = assay: Antiproliferative activity against human LoVo cells assessed as reduction in cell viability incubated for 24 hrs by CCK-8 assay; format: functional, cell-based
A549 = assay: Antiproliferative activity against human A549 cells assessed as reduction in cell viability incubated for 24 hrs by CCK-8 assay; format: functional, cell-based; conditions: A549, 24 h
[1] = Antiproliferative activity against human […] cells assessed as reduction in cell viability incubated for 24 hrs by CCK-8 assay; format: functional, cell-based
HepG2 = assay: Antiproliferative activity against human HepG2 cells assessed as reduction in cell viability incubated for 24 hrs by CCK-8 assay; format: functional, cell-based; conditions: HepG2, 24 h
MDA-MB-231 = assay: Antiproliferative activity against human MDA-MB-231 cells assessed as reduction in cell viability incubated for 24 hrs by CCK-8 assay; format: functional, cell-based; conditions: MDA-MB-231, 24 h
NCI-H460 [2] = assay: Antiproliferative activity against human NCI-H460 cells assessed as reduction in cell viability incubated for 24 hrs by CCK-8 assay; format: functional, cell-based; conditions: NCI-H460, 24 h
AGS = assay: Antiproliferative activity against human AGS cells assessed as reduction in cell viability incubated for 24 hrs by CCK-8 assay; format: functional, cell-based
L02 = assay: Cytotoxicity against human L02 cells assessed as reduction in cell viability incubated for 8 hrs by CCK-8 assay; format: toxicity, cell-based; conditions: l02, 8 h
HONE1 cell line = assay: Antiproliferative activity against human HONE1 cell line assessed as reduction in cell viability incubated for 24 hrs by CCK-8 assay; format: functional, cell-based; conditions: HONE1, 24 h
NCI-H1299 = assay: Antiproliferative activity against human NCI-H1299 cells assessed as reduction in cell viability incubated for 24 hrs by CCK-8 assay; format: functional, cell-based; conditions: NCI-H1299, 24 h
NCI-H460 [3] = assay: Cytotoxicity against human NCI-H460 cells assessed as reduction in cell viability at 10 uM incubated for 8 hr by CCK-8 assay; format: functional, cell-based
OVCAR-3 = assay: Antiproliferative activity against human OVCAR-3 cells assessed as reduction in cell viability incubated for 24 hrs by CCK-8 assay; format: functional, cell-based; conditions: OVCAR-3, 24 h
MCF7 = assay: Antiproliferative activity against human MCF7 cells assessed as reduction in cell viability incubated for 24 hrs by CCK-8 assay; format: functional, cell-based; conditions: MCF7, 24 h
U-251 = assay: Antiproliferative activity against human U-251 cells assessed as reduction in cell viability incubated for 24 hrs by CCK-8 assay; format: functional, cell-based; conditions: U-251, 24 h
[4] = Antiproliferative activity against human NCI-H1688 cells assessed as reduction in cell viability incubated for 24 hrs by CCK-8 assay; format: functional, cell-based; conditions: NCI-H1688, 24 h
SW480 = assay: Antiproliferative activity against human SW480 cells assessed as reduction in cell viability incubated for 24 hrs by CCK-8 assay; format: functional, cell-based; conditions: SW480, 24 h
NCI-H1650 = assay: Antiproliferative activity against human NCI-H1650 cells assessed as reduction in cell viability incubated for 24 hrs by CCK-8 assay; format: functional, cell-based; conditions: NCI-H1650, 24 h

In the case of `C[S+]([O-])CCCCN=C=S` (stereo not drawn) [SULFORAPHANE], the IC50 (SGC-7901) is reported as 24.9 µM, the IC50 (LoVo) is reported as 18.5 µM and the IC50 (A549) is reported as 20.2 µM. The IC50 [1] was 25.1 µM, the IC50 (HepG2) was 21 µM and the IC50 (MDA-MB-231) was 22.2 µM. The IC50 (NCI-H460 [2]) was 21.2 µM, the IC50 (AGS) was 18.4 µM and the Activity (L02) was “Non-Toxic”. The IC50 (HONE1 cell line) was 19.3 µM, the IC50 (NCI-H1299) was 11.6 µM and the Activity (NCI-H460 [3]) was “inactive”. For the same compound, the IC50 (OVCAR-3) was 18.4 µM, the IC50 (MCF7) was 23.1 µM and the IC50 (U-251) was 22.5 µM. For the same compound, the IC50 [4] was 16.8 µM, the IC50 (SW480) was 17.8 µM and the IC50 (NCI-H1650) was 22 µM.
